Experimental data as given in ChEMBL document CHEMBL4808241, “Synthesis and biological evaluation of 1,6-bis-triazole-2,3,4-tri-O-benzyl-α-d-glucopyranosides as a novel α-glucosidase inhibitor in the treatment of Type 2 diabetes” (Bioorg Med Chem Lett, 2021).
The source made the active and inactive calls. No cut-off for these calls is given here.

Assays:
Saccharomyces cerevisiae [1] = assay: Inhibition of Saccharomyces cerevisiae alpha-glucosidase at 0.1 mg/ml
[2] = Inhibition of Saccharomyces cerevisiae alpha-glucosidase
Homo sapiens = species on record: Homo sapiens; assay: Competitive inhibition of alpha-glucosidase (unknown origin) by kinetics based analysis
Saccharomyces cerevisiae [3] = assay: Potency index, ratio of acarbose IC50 to test compound IC50 for Saccharomyces cerevisiae alpha-glucosidase

SMILES | inhibition (Saccharomyces cerevisiae [1]) | IC50 [2] [µM] | also measured
C=CCc1ccccc1OCCn1cc(COC[C@H]2O[C@H](OCc3cn(CCOc4ccccc4CC=C)nn3)[C@H](OCc3ccccc3)[C@@H](OCc3ccccc3)[C@@H]2OCc2ccccc2)nn1 | inactive | – | –
c1ccc(CCn2cc(COC[C@H]3O[C@H](OCc4cn(CCc5ccccc5)nn4)[C@H](OCc4ccccc4)[C@@H](OCc4ccccc4)[C@@H]3OCc3ccccc3)nn2)cc1 | inactive | – | –
COc1ccc(COC(=O)Cn2cc(COC[C@H]3O[C@H](OCc4cn(CC(=O)OCc5ccc(OC)cc5)nn4)[C@H](OCc4ccccc4)[C@@H](OCc4ccccc4)[C@@H]3OCc3ccccc3)nn2)cc1 | inactive | – | –
c1ccc(CO[C@@H]2[C@@H](OCc3ccccc3)[C@@H](OCc3cn(CCOc4ccccc4)nn3)O[C@H](COCc3cn(CCOc4ccccc4)nn3)[C@H]2OCc2ccccc2)cc1 | – | 24.4 | –
C=CCCCCCCCCCn1cc(COC[C@H]2O[C@H](OCc3cn(CCCCCCCCCC=C)nn3)[C@H](OCc3ccccc3)[C@@H](OCc3ccccc3)[C@@H]2OCc2ccccc2)nn1 | inactive | – | –
CC(C)[C@@H]1CC[C@@H](C)C[C@H]1OC(=O)Cn1cc(COC[C@H]2O[C@H](OCc3cn(CC(=O)O[C@@H]4C[C@H](C)CC[C@H]4C(C)C)nn3)[C@H](OCc3ccccc3)[C@@H](OCc3ccccc3)[C@@H]2OCc2ccccc2)nn1 | – | 3.73 | inhibition (Homo sapiens): Active; Ratio IC50 (Saccharomyces cerevisiae [3]): 39
c1ccc(CO[C@@H]2[C@@H](OCc3ccccc3)[C@@H](OCc3cn(CCOc4cccc5ccccc45)nn3)O[C@H](COCc3cn(CCOc4cccc5ccccc45)nn3)[C@H]2OCc2ccccc2)cc1 | – | 29.4 | –
Cc1ccc(OCCn2cc(COC[C@H]3O[C@H](OCc4cn(CCOc5ccc(C)cc5)nn4)[C@H](OCc4ccccc4)[C@@H](OCc4ccccc4)[C@@H]3OCc3ccccc3)nn2)cc1 | – | 50.5 | –
O=C1C=C(OCCCCCCn2cc(COC[C@H]3O[C@H](OCc4cn(CCCCCCOC5=CC(=O)Cc6ccccc65)nn4)[C@H](OCc4ccccc4)[C@@H](OCc4ccccc4)[C@@H]3OCc3ccccc3)nn2)c2ccccc2C1 | – | 20.8 | –
c1ccc(CO[C@@H]2[C@@H](OCc3ccccc3)[C@@H](OCc3cn(CCOc4ccc5ccccc5c4)nn3)O[C@H](COCc3cn(CCOc4ccc5ccccc5c4)nn3)[C@H]2OCc2ccccc2)cc1 | – | 13.9 | –
COc1cc(COC(=O)Cn2cc(COC[C@H]3O[C@H](OCc4cn(CC(=O)OCc5ccc(OCc6ccccc6)c(OC)c5)nn4)[C@H](OCc4ccccc4)[C@@H](OCc4ccccc4)[C@@H]3OCc3ccccc3)nn2)ccc1OCc1ccccc1 | inactive | – | –
COc1ccc(OC)c(Cn2cc(COC[C@H]3O[C@H](OCc4cn(Cc5cc(OC)ccc5OC)nn4)[C@H](OCc4ccccc4)[C@@H](OCc4ccccc4)[C@@H]3OCc3ccccc3)nn2)c1 | – | 3.86 | –
CCCCCCCCCCCCCCCCCCn1cc(COC[C@H]2O[C@H](OCc3cn(CCCCCCCCCCCCCCCCCC)nn3)[C@H](OCc3ccccc3)[C@@H](OCc3ccccc3)[C@@H]2OCc2ccccc2)nn1 | inactive | – | –
COc1cc(Cn2cc(COC[C@H]3O[C@H](OCc4cn(Cc5ccc(OCc6ccccc6)c(OC)c5)nn4)[C@H](OCc4ccccc4)[C@@H](OCc4ccccc4)[C@@H]3OCc3ccccc3)nn2)ccc1OCc1ccccc1 | inactive | – | –
Fc1ccc(Cn2cc(COC[C@H]3O[C@H](OCc4cn(Cc5ccc(F)cc5)nn4)[C@H](OCc4ccccc4)[C@@H](OCc4ccccc4)[C@@H]3OCc3ccccc3)nn2)cc1 | – | 37.3 | –
O=C(Cn1cc(COC[C@H]2O[C@H](OCc3cn(CC(=O)Oc4cccc5ccccc45)nn3)[C@H](OCc3ccccc3)[C@@H](OCc3ccccc3)[C@@H]2OCc2ccccc2)nn1)Oc1cccc2ccccc12 | – | 9.98 | –

SMILES | inhibition (Saccharomyces cerevisiae [1]) | IC50 [2] [µM] | also measured
Cc1cc(COC(=O)Cn2cc(COC[C@H]3O[C@H](OCc4cn(CC(=O)OCc5ccc(Cl)c(C)c5)nn4)[C@H](OCc4ccccc4)[C@@H](OCc4ccccc4)[C@@H]3OCc3ccccc3)nn2)ccc1Cl | inactive | – | –
O=C(Cn1cc(COC[C@H]2O[C@H](OCc3cn(CC(=O)OCc4ccc([N+](=O)[O-])cc4)nn3)[C@H](OCc3ccccc3)[C@@H](OCc3ccccc3)[C@@H]2OCc2ccccc2)nn1)OCc1ccc([N+](=O)[O-])cc1 | – | 5.68 | –
c1ccc(CO[C@@H]2[C@@H](OCc3ccccc3)[C@@H](OCc3cn(C(c4ccccc4)c4ccccc4)nn3)O[C@H](COCc3cn(C(c4ccccc4)c4ccccc4)nn3)[C@H]2OCc2ccccc2)cc1 | inactive | – | –
O=[N+]([O-])c1cccc(Cn2cc(COC[C@H]3O[C@H](OCc4cn(Cc5cccc([N+](=O)[O-])c5)nn4)[C@H](OCc4ccccc4)[C@@H](OCc4ccccc4)[C@@H]3OCc3ccccc3)nn2)c1 | – | 22.9 | –
O=[N+]([O-])c1ccc(Cn2cc(COC[C@H]3O[C@H](OCc4cn(Cc5ccc([N+](=O)[O-])cc5)nn4)[C@H](OCc4ccccc4)[C@@H](OCc4ccccc4)[C@@H]3OCc3ccccc3)nn2)cc1 | – | 53.3 | –
COc1ccc(OC)c(COC(=O)Cn2cc(COC[C@H]3O[C@H](OCc4cn(CC(=O)OCc5cc(OC)ccc5OC)nn4)[C@H](OCc4ccccc4)[C@@H](OCc4ccccc4)[C@@H]3OCc3ccccc3)nn2)c1 | inactive | – | –
C[C@H]1O[C@H](O[C@H]2[C@H](O)[C@@H](O)[C@@H](O[C@H]3[C@H](O)[C@@H](O)C(O)O[C@@H]3CO)O[C@@H]2CO)[C@H](O)[C@@H](O)[C@@H]1N[C@H]1C=C(CO)[C@@H](O)[C@H](O)[C@H]1O (some centres undefined) [ACARBOSE] | – | 146 | –
COc1cccc(Cn2cc(COC[C@H]3O[C@H](OCc4cn(Cc5cccc(OC)c5)nn4)[C@H](OCc4ccccc4)[C@@H](OCc4ccccc4)[C@@H]3OCc3ccccc3)nn2)c1 | inactive | – | –
COc1cccc(COC(=O)Cn2cc(COC[C@H]3O[C@H](OCc4cn(CC(=O)OCc5cccc(OC)c5)nn4)[C@H](OCc4ccccc4)[C@@H](OCc4ccccc4)[C@@H]3OCc3ccccc3)nn2)c1 | inactive | – | –
c1ccc(CO[C@@H]2[C@@H](OCc3ccccc3)[C@@H](OCc3cn(Cc4ccccc4)nn3)O[C@H](COCc3cn(Cc4ccccc4)nn3)[C@H]2OCc2ccccc2)cc1 | – | 12.1 | –
CCCCCCCC/C=C\CCCCCCCCn1cc(COC[C@H]2O[C@H](OCc3cn(CCCCCCCC/C=C\CCCCCCCC)nn3)[C@H](OCc3ccccc3)[C@@H](OCc3ccccc3)[C@@H]2OCc2ccccc2)nn1 | – | 14.1 | –
O=C(Cn1cc(COC[C@H]2O[C@H](OCc3cn(CC(=O)OCc4ccccc4)nn3)[C@H](OCc3ccccc3)[C@@H](OCc3ccccc3)[C@@H]2OCc2ccccc2)nn1)OCc1ccccc1 | inactive | – | –
O=C(Cn1cc(COC[C@H]2O[C@H](OCc3cn(CC(=O)OC(c4ccccc4)c4ccccc4)nn3)[C@H](OCc3ccccc3)[C@@H](OCc3ccccc3)[C@@H]2OCc2ccccc2)nn1)OC(c1ccccc1)c1ccccc1 | inactive | – | –
CCCCCCCCCCCCCn1cc(COC[C@H]2O[C@H](OCc3cn(CCCCCCCCCCCCC)nn3)[C@H](OCc3ccccc3)[C@@H](OCc3ccccc3)[C@@H]2OCc2ccccc2)nn1 | inactive | – | –
O=C(Cn1cc(COC[C@H]2O[C@H](OCc3cn(CC(=O)c4cc5ccccc5oc4=O)nn3)[C@H](OCc3ccccc3)[C@@H](OCc3ccccc3)[C@@H]2OCc2ccccc2)nn1)c1cc2ccccc2oc1=O | inactive | – | –
O=c1ccc2cc(OCCCCCCn3cc(COC[C@H]4O[C@H](OCc5cn(CCCCCCOc6ccc7oc(=O)ccc7c6)nn5)[C@H](OCc5ccccc5)[C@@H](OCc5ccccc5)[C@@H]4OCc4ccccc4)nn3)ccc2o1 | – | 21.7 | –
